The text below walks through data of ChEMBL document CHEMBL3301361, “Experimental in vitro DMPK and physicochemical data on a set of publicly disclosed compounds”.

Data set [1] is described as follows: in vitro. To be noted: human.
Data set [2] can be described thus: in vitro. To be noted: hepatocytes.
A short description of data set [3]: physchem. To be noted: pH 7.4 buffer.
The nature of data set [4]: physchem. Conditions: octan-1-ol/water.
Data set [5] is described as follows: in vitro. To be noted: human, plasma.

In brackets after ≈: the same amount, converted by molar mass. Bounds are passed on as bounds.

For orientation: microsomal CLint means the rate of metabolic loss divided by the concentration. The low end stands for greater metabolic stability, the high end for faster metabolism. The term hepatocyte CLint denotes a measure of how fast metabolising enzymes remove a compound, apart from limits set by blood flow. A high value points to faster metabolism. What is called thermodynamic solubility is solubility found after equilibrating the solid with the medium. In general, logD refers to the decadic logarithm of the distribution of all forms, ionised or not, between an organic phase and buffer at a given pH. A higher logD goes with a more lipophilic compound. In turn, `CS(=O)(=O)c1ccc([C@H](CC2CCCC2)C(=O)Nc2nccs2)cc1` yielded a microsomal CLint in “in vitro [1]” (microsomes) of 43.6 µL/min/mg. The same molecule showed a hepatocyte CLint in the data set “in vitro [2]” of 35.5 µL/min/1e6 cells. In “physchem [3]”, the solubility (thermodynamic) was determined as 5.8 µM (≈ 2.2 µg/mL). Moreover, the logD in “physchem [4]” (pH 7.4, LogD7.4) was 3.88.
By fraction unbound is commonly meant free concentration divided by total concentration. For `CN(C)c1nc(NC[C@H]2CC[C@H](CNS(=O)(=O)c3ccc(Br)cc3OC(F)(F)F)CC2)nc2ccccc12`, the microsomal CLint in the data set “in vitro [1]” (microsomes) turned out to be 117 µL/min/mg. The hepatocyte CLint in the data set “in vitro [2]” turned out to be 50.1 µL/min/1e6 cells. In “in vitro [5]” (PPB), the fraction unbound at 5 h is 0.0005.
With `Cc1[nH]c2ccc(-c3nnc(SCC(=O)N4CCCc5ccccc54)o3)cc2c1C`, the microsomal CLint in “in vitro [1]” (liver microsomes) was greater than 150 µL/min/mg. The same molecule yielded a hepatocyte CLint in “in vitro [2]” greater than 150 µL/min/1e6 cells. In addition, the fraction unbound at 5 h in “in vitro [5]” is 0.0052.
In turn, `O=C(Nc1ccncc1)c1cccc2ccccc12` gave a microsomal CLint in the data set “in vitro [1]” (liver microsomes) of 60.3 µL/min/mg. In the data set “in vitro [2]”, this molecule came in with a hepatocyte CLint of 25.1 µL/min/1e6 cells. In “in vitro [5]”, this molecule showed a free fraction (fraction unbound) at 5 h of 0.069. In “physchem [4]” (pH 7.4), the logD is 3.1.
With `O=C(C1CCN(c2nnc(-n3cccc3)s2)CC1)N1CCN(Cc2ccc3c(c2)OCO3)CC1`, in the data set “in vitro [1]” (liver microsomes), the microsomal CLint is greater than 150 µL/min/mg. Also, in “in vitro [2]”, the intrinsic clearance (hepatocyte CLint) stood at 50.1 µL/min/1e6 cells. For the same molecule, the fraction unbound at 5 h in the data set “in vitro [5]” (PPB) is 0.0447. In “physchem [4]” (pH 7.4, LogD7.4), this molecule displayed a logD of 2.5.
In the data set “in vitro [1]” (microsomes), `Cc1cc(C)cc(-c2nnc(SCC(=O)N3CCN(C(=O)c4ccco4)CC3)o2)c1` displayed a microsomal CLint of 67.6 µL/min/mg. For the same molecule, the hepatocyte CLint in “in vitro [2]” stood at 89.1 µL/min/1e6 cells. This molecule also showed a fraction unbound at 5 h in the data set “in vitro [5]” (PPB) of 0.0321. The molecule further yielded a logD in “physchem [4]” (pH 7.4, LogD7.4) of 3.
As to `COc1cnc(-c2ccccn2)nc1N(C)c1ccccc1`, in the data set “in vitro [1]” (liver microsomes), the microsomal CLint was found to be 104 µL/min/mg. In addition, the hepatocyte CLint in the data set “in vitro [2]” was greater than 150 µL/min/1e6 cells. Also, in “in vitro [5]” (PPB), the fraction unbound at 5 h is 0.04. In the data set “physchem [4]” (pH 7.4, LogD7.4), this molecule yielded a logD of 2.79.
In the case of `COc1ccccc1C(=O)Nc1ccc(Cc2ccncc2)cc1`, in the data set “in vitro [1]” (microsomes), the microsomal CLint came out at 7 µL/min/mg. In the data set “in vitro [2]”, this molecule returned an intrinsic metabolic clearance (hepatocyte CLint) of 103 µL/min/1e6 cells. The molecule also showed an unbound share (fraction unbound) at 5 h in “in vitro [5]” (PPB) of 0.0024.
In “in vitro [1]” (microsomes), `O=C(Nc1ccccc1Cl)c1cc[nH]n1` had a microsomal CLint of 138 µL/min/mg. This molecule displayed a hepatocyte CLint in the data set “in vitro [2]” greater than 150 µL/min/1e6 cells. The molecule also gave a fraction unbound at 5 h in “in vitro [5]” (PPB) of 0.0661. This molecule also returned a logD in “physchem [4]” (pH 7.4, LogD7.4) of 2.58.
Regarding `Nc1nc2ccc(-c3ccncc3)cc2s1`, the microsomal CLint in the data set “in vitro [1]” (liver microsomes) was found to be 20.4 µL/min/mg. The molecule also showed a hepatocyte CLint in the data set “in vitro [2]” of 29.5 µL/min/1e6 cells. The fraction unbound at 5 h in “in vitro [5]” (PPB) is 0.119.
Molecule `O=C1Nc2ccccc2B(O)N1c1ccccc1` gave a microsomal CLint in the data set “in vitro [1]” (microsomes) of 5.13 µL/min/mg. Further, the hepatocyte CLint in “in vitro [2]” stood at 7.94 µL/min/1e6 cells. The molecule also showed a fraction unbound at 5 h in the data set “in vitro [5]” of 0.179. Also, the logD in the data set “physchem [4]” (pH 7.4) worked out at 1.4.
Regarding `CSCCC(NC(=O)c1cnccn1)c1nc2ccccc2[nH]1` (configuration not stated), in the data set “in vitro [1]” (liver microsomes), the microsomal CLint was 31 µL/min/mg. The molecule further showed a hepatocyte CLint in the data set “in vitro [2]” of 74 µL/min/1e6 cells. This molecule showed a fraction unbound at 5 h in “in vitro [5]” (PPB) of 0.398.
In turn, `CCOc1ccc2oc(C(=O)NC(CCSC)c3nc4cnccc4[nH]3)c(C)c2c1` (configuration not stated) gave a microsomal CLint in “in vitro [1]” (liver microsomes) of 17 µL/min/mg. The molecule also displayed an intrinsic clearance (hepatocyte CLint) in “in vitro [2]” of 21 µL/min/1e6 cells. This molecule came in with a solubility (thermodynamic) in the data set “physchem [3]” of 10.5 µM (≈ 4.46 µg/mL). This molecule also returned a logD in the data set “physchem [4]” (pH 7.4, LogD7.4) of 4.31.
As to `CN(C)CCNc1cc(-c2ccccc2)nc2cc(-c3ccc(F)cc3)nn12`, in “in vitro [1]” (microsomes), the microsomal CLint was 11.2 µL/min/mg. Further, in “in vitro [2]”, the hepatocyte CLint stood at 24 µL/min/1e6 cells. The thermodynamic solubility in the data set “physchem [3]” was 2.1 µM (≈ 0.788 µg/mL). Also, the logD in the data set “physchem [4]” (pH 7.4, LogD7.4) turned out to be 4.5.
In the data set “in vitro [1]” (liver microsomes), `COCCNc1nc(NCc2ccccc2F)c2sccc2n1` displayed a microsomal CLint greater than 150 µL/min/mg. Besides, the hepatocyte CLint in the data set “in vitro [2]” worked out at 148 µL/min/1e6 cells. This molecule showed a fraction unbound at 5 h in the data set “in vitro [5]” of 0.028.
Regarding `Cc1ccc(CNC(=O)C2CCCN2S(=O)(=O)c2ccc(F)cc2)cc1` (configuration not stated), the microsomal CLint in the data set “in vitro [1]” (liver microsomes) was greater than 150 µL/min/mg. In “in vitro [2]”, this molecule displayed a hepatocyte CLint greater than 150 µL/min/1e6 cells. Also, the thermodynamic solubility in “physchem [3]” was determined as 8.9 µM (≈ 3.35 µg/mL). In “physchem [4]” (pH 7.4, LogD7.4), this molecule gave a logD of 2.9.
On to `O=c1[nH]c2c(O)ccc([C@@H](O)CNCCc3cccc(CNCCc4ccccc4Cl)c3)c2s1`, for which the microsomal CLint in “in vitro [1]” (microsomes) is 19 µL/min/mg. Further, the hepatocyte CLint in the data set “in vitro [2]” was 42 µL/min/1e6 cells. The same molecule yielded a solubility (thermodynamic) in “physchem [3]” of 118 µM (≈ 58.5 µg/mL). Also, the logD in the data set “physchem [4]” (pH 7.4, LogD7.4) is 1.63.
In “in vitro [1]” (liver microsomes), `CN[C@@H](C)C(=O)N[C@H](C(=O)N1CC[C@H]2CCN(CCc3ccccc3)C[C@H]21)C1CCCCC1` came in with a microsomal CLint of 21.4 µL/min/mg. This molecule also returned a hepatocyte CLint in the data set “in vitro [2]” of 10.5 µL/min/1e6 cells. The fraction unbound at 5 h in the data set “in vitro [5]” (PPB) was 0.0568. The molecule further showed a logD in the data set “physchem [4]” (pH 7.4, LogD7.4) of 2.47.
In the case of `COc1ccc(-c2nc3c(NCCCN(C)C(=O)C4CCC4)c(Br)cnc3[nH]2)cc1`, in the data set “in vitro [1]” (liver microsomes), the microsomal CLint is greater than 150 µL/min/mg. Also, the hepatocyte CLint in the data set “in vitro [2]” was 138 µL/min/1e6 cells. Further, the fraction unbound at 5 h in the data set “in vitro [5]” (PPB) is 0.0022.
Take `O=C(O)CCc1ccc(OCc2cc(Cl)ccc2-c2ccccc2)cc1`: the microsomal CLint in “in vitro [1]” (microsomes) was less than 3 µL/min/mg. The same molecule gave a hepatocyte CLint in “in vitro [2]” of 13.8 µL/min/1e6 cells. In the data set “in vitro [5]” (PPB), this molecule showed a fraction unbound at 5 h of 0.002. The same molecule yielded a logD in “physchem [4]” (pH 7.4, LogD7.4) of 3.22.
In turn, `Nc1ncnc2c1c(COc1cccc(Cl)c1)nn2C1CCOCC1` registered a microsomal CLint in “in vitro [1]” (microsomes) of 46.8 µL/min/mg. Further, the hepatocyte CLint in “in vitro [2]” is greater than 150 µL/min/1e6 cells. This molecule showed a fraction unbound at 5 h in “in vitro [5]” (PPB) of 0.0477. Moreover, the logD in “physchem [4]” (pH 7.4, LogD7.4) was determined as 3.17.
